Measured values: patent US20230203031A1, “COMPOUNDS USEFUL FOR INHIBITING CDK7” (Eli Lilly and Company, priority 2020, published 2023)
Like-named read-outs stand apart in the source and are kept apart here.

Tests used:
CDK9/cyclinT1 = CDK9/cyclinT1 (Homo sapiens, UniProt P50750); experiment: Assay for inhibition of CDK9/CyclinT1 kinase activity (radiolabel filter binding); conditions: IC50 for CDK9 (3 hours preincubation), 100 µM ATP
Protocol: The purpose of these assays is to measure the ability of the compounds described herein to inhibit CDK7/CyclinH/Mat1 complex kinase activity. […] The IC50 determination for CDK7 and CDK9 are determined as follows.
The IC50 activity of the compounds described herein is determined using radiolabel filter binding (FB) assays using the purified human recombinant enzyme in the presence of ATP and peptide substrate. The ATP concentrations chosen are at or near the enzyme Km for ATP. Reactions are carried out in 96 well polystyrene plates in a final volume of 25 µL per well. 5 µL of test compound in 20% DMSO, 10 µL of substrate solution (ATP//[^33P]ATP and CDK7/9 tide) and 10 µL of enzyme solution are mixed. […] The enzyme solution is prepared for a final concentration of 7.5 nM CDK9/cyclinTl enzyme [Proqinase 0371-0345-1 (Lot 004)] diluted in kinase buffer. Test compounds are serially diluted 1:3 in 20% DMSO to create a 10 point curve at a starting concentration of 20 µM. 20% DMSO buffer alone without test compound is employed as high control (full activity in the absence of any inhibitor), 500 mM EDTA is used to determine the level of background in the absence of enzyme activity (low control). After mixing 5 µL of compounds with 10 µL of enzyme solution, the plate is incubated for 0 or 180 minutes at 22° C. After that time, the reaction is initiated by the addition of 10 µL substrate solution and incubated for 60 minutes at 22° C. The reaction is terminated by the addition of 80 µL of cold 10% orthophosphoric solution. Filter plates (opaque, non-sterile filter plates) are prewashed with 10 µL of 10% orthophosphoric solution per well. 100 µL of the mixture are transferred to a phosphocellulose filter and incubate at room temperature for 45 minutes. Filter plates are washed with 200 µL 0.5 % orthophosphoric acid 3 times on a filter plate processor. 80 µL of MICROSCINT™ is added to each well and read on a scintillation counter after an hour. Data is processed through a [sequence]-[sequence]Ⓡ tool. Data is analyzed using a 4-parameter nonlinear logistic equation (four-parameter logistic concentration-response curve): Y = bot + [(top-bot)/1+(x/ IC50)Slope] where Y = % inhibition, X = concentration yielding y% inhibition, Bottom = minimum value of y attained by curve, Top = maximum value of y attained by curve and Slope = steepness of curve at IC50. %Inh = [(median Max- x/ median Max - median Min)] . 100 IC50: concentration of compound that reduces a given response (ligand binding, enzyme response) by 50%. IC50 relative: concentration giving half the compound’s maximum response.

cMyc in HCT116 cells = experiment: cMyc cell based Acumen assay; conditions: read-out: Relative IC50 for cMyc
Protocol: HCT116 cells (ATCC CCL-247) are cultured in McCoy’s 5 Å Medium Modified media supplemented with 10% FBS, 1% NaPyr, and 1% Pen/Strep and plated (prior to becoming 70% confluent) in 96-well flat-bottom plates at a density of 5,000 cells per well in 100 µL volume. The cells are then incubated overnight in a cell culture incubator (5% CO2, 95% Relative Humidity (RH), and 37° C.) and allowed to attach to the plate. The following morning the cells are dosed with compounds. Compound inhibitors are solubilized at 60 µM in culture medium containing 0.6% DMSO. Subsequently, compound serial dilutions (1:3) are prepared over a 60 µM to 0.003 µM range. Cells are dosed with the addition of 50 µL from serial dilution plate to assay plate containing cell attached with 100 µL of media producing a final DMSO concentration of 0.2% with a final compound concentration dose range between 20 µM and 0.001 µM. For max point media containing 0.2% of DMSO is used and for min point, a reference compound diluted at 0.83 µM final concentration in the growth media containing 0.2% DMSO is used. After dosing with compounds, the cell plates are incubated at 37° C. and 5% CO2 for 4 hours. Growth media is removed carefully and the cells are fixed by adding 100 µL of 4% para-formaldehyde for 30 minutes at RT. Cell are washed once with PBS and incubated with 100 µL of cold MeOH for 15 minutes at RT for cell permeation. Again cell are washed twice with PBS (100 µL/each) and blocked with 100 µL/well of 1% BSA/PBS for 30 minutes at RT. 50 µL of 1:1000 primary antibody (Anti-c-Myc antibody [Y69] Abcam cat# ab32072) dilution in 1% BSA/PBS are added per well, the plates sealed and incubated overnight at 4° C. The following day cells are washed three times with PBS (100 µL/well) and incubated with 50 µL/well of secondary antibody (1:2000 dilution, Goat anti-rabbit IgM ALEXA FLUOR™ 488) in PBS for 1 hour at RT. After wash 3× with PBS (100 µL/well), 100 µL of 50 µg/mL RNAase and 1:1000 propidium iodide (Invitrogene) dilution in PBS are added per well. Plates are sealed and incubated for 1 hour at RT on the bench (preserved from light). Plates are analyzed on Acumen on FL2 (mean intensity), and FL3 (total intensity). Fluorescence Plates are scanned with ACUMEN EXPLORER™ [Laser-scanning fluorescence microplate cytometer manufactured by TTP LABTECH LTD] to measure anti-phospho-carboxyl terminal domain at Serine 5 (pCTD). Image analysis is based on cellular fluorescent signals for identifying positive cells. pCTD (S5) positive cells are identified by mean intensity at 500-530 above the threshold. Total intensity at 575-640 from propidium iodide/DNA is used to identify individual cells. Assay output is % pCTD positive cells. The IC50 is determined by curve fitting to a four parameter logistic for each output using GENE DATA™.

[1] = tested on: phosphoCTD (S2) in HCT116 cells; experiment: Phospho-carboxyl terminal domain (Ser2) p-CTD (S2) cell based Acumen assay; conditions: read-out: relative IC50 for phosphoCTD (S2)
Protocol: HCT116 cells (ATCC CCL-247) are cultured in McCoy’s 5 Å Medium Modified media supplemented with 10% FBS, 1% NaPyr, and 1% Pen/Strep and plated (prior to becoming 70% confluent) in 96-well flat-bottom plates at a density of 5,000 cells per well in 100 µL volume. The cells are then incubated overnight in a cell culture incubator (5% CO2, 95% Relative Humidity (RH) and 37° C.) and allowed to attach to the plate. The following morning the cells are dosed with compounds. Compound inhibitors are first solubilized at 60 µM in culture medium containing 0.6% DMSO. Subsequently compound serial dilutions (1:3) are prepared over a 60 µM to 0.003 µM range. Cells are dosed with the addition of 50 µL from serial dilution plate to assay plate containing cells attached with 100 µL of media producing a final DMSO concentration of 0.2% with a final compound concentration dose range between 20 and 0.001 µM. For max point media containing 0.2% of DMSO is used and for min point, a reference compound diluted at 0.83 µM final concentration in the growth media containing 0.2% DMSO is used. After dosing with compounds, the cell plates are incubated at 37° C. and 5% CO2 for 4 hours. The growth media is removed carefully and the cells are fixed by adding 100 µL of 4% para-formaldehyde for 30 minutes at RT. Cells are washed once with PBS and incubated with 100 µL of cold MeOH for 15 minutes at RT for cell permeation. Cells are washed twice with PBS (100 µL/each) and blocked with 100 µL/well of 1% BSA/PBS for 30 minutes at RT. 50 µL of 1:1000 primary antibody (Anti-phospho CTD Ser2 Abcam, cat# ab5095-100) dilution in 1% BSA/PBS are added per well, the plates are sealed and incubated overnight at 4° C.
The following day cells are washed three times with PBS (100 µL/well) and incubated with 50 µL/well of secondary antibody (1:2000 dilution, Goat anti-rabbit IgM ALEXA FLUOR™ 488) in PBS for 1 hour at RT. After washing 3X with PBS (100 µL/well), 100 µL of 50 µg/mL RNAase and 1:1000 propidium iodide dilution in PBS are added per well. Plates are sealed and incubated 1 hour at RT on the bench (preserved from light). Plates are analyzed on Acumen on FL2 (mean intensity) and FL3 (total intensity). Fluorescence plates are scanned with ACUMEN EXPLORER™ [Laser-scanning fluorescence microplate cytometer manufactured by TTP LABTECH LTD] to measure anti-phospho-carboxyl terminal domain at Serine 2 (pCTD). Image analysis is based on cellular fluorescent signals for identifying positive cells. pCTD (S2) positive cells are identified by mean intensity at 500-530 above the threshold. Total intensity at 575-640 from propidium iodide/DNA is used to identify individual cells. Assay output is % pCTD positive cells.
The IC50 is determined by curve fitting to a four parameter logistic for each output using GENE DATA™.

CDK7/CyclinH/Mat1 = CDK7/CyclinH/Mat1 (Homo sapiens, UniProt P50613); experiment: Biochemical assay for inhibition of CDK7/CyclinH/MAT1 (radiolabel filter binding); conditions: 100 µM ATP
Sequence of CDK7/CyclinH/Mat1 (P50613 whole entry): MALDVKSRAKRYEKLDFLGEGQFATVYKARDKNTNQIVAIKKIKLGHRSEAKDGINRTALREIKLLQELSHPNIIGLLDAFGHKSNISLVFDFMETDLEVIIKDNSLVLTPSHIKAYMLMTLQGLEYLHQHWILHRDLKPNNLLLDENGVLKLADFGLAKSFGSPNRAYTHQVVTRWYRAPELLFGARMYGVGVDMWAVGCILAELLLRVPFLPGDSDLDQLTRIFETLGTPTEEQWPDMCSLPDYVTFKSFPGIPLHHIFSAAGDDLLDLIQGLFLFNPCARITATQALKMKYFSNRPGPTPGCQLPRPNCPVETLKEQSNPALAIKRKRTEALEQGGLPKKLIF
Sequence of CDK7/CyclinH/Mat1 (P51946 whole entry partner): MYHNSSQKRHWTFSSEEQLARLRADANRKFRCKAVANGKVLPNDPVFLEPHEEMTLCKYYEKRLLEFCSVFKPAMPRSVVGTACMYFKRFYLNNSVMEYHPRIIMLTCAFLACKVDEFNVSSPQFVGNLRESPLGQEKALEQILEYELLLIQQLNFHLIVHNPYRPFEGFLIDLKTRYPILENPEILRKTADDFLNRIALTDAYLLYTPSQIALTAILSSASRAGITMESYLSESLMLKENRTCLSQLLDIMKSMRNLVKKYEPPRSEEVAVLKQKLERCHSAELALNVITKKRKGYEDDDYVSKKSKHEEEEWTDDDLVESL
Sequence of CDK7/CyclinH/Mat1 (P51948 whole entry partner): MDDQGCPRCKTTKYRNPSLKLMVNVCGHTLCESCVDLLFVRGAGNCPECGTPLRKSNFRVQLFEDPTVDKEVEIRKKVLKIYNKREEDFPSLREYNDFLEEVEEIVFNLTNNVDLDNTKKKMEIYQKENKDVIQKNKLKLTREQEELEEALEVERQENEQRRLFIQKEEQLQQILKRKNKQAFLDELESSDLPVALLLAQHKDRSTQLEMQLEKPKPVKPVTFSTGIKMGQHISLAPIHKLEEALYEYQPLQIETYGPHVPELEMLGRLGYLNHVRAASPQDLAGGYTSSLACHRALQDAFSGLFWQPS
Protocol: The purpose of these assays is to measure the ability of the compounds described herein to inhibit CDK7/CyclinH/Mat1 complex kinase activity. […] All ligands, solvents, and reagents employed in the following assays are readily available from commercial sources, or can be readily synthesized by one skilled in the art. The IC50 determination for CDK7 and CDK9 are determined as follows.
The IC50 activity of the compounds described herein is determined using radiolabel filter binding (FB) assays using the purified human recombinant enzyme in the presence of ATP//[^33P]ATP and peptide substrate. The ATP concentrations chosen are at or near the enzyme Km for ATP.
Reactions are carried out in 96 well polystyrene plates in a final volume of 25 µL per well. 5 µL of test compound in 20% DMSO, 10 µL of substrate solution (ATP/33PATP and CDK7/9 tide), and 10 µL of enzyme solution are mixed. […] The enzyme solution is prepared for a final concentration of 1 nM CDK7/CyclinH/Mat1 enzyme [Proqinase 0366-0360-4 Lot 002)] diluted in kinase buffer. Test compounds are serially diluted 1:3 in 20% DMSO to create a 10 point curve at a starting concentration of 20 µM. 20% DMSO buffer alone without test compound is employed as high control (full activity in the absence of any inhibitor), 500 mM EDTA is used to determine the level of background in the absence of enzyme activity (low control). After mixing 5 µL of compounds with 10 µL of enzyme solution, the plate is incubated for 0 or 180 minutes at 22° C. After that time, the reaction is initiated by the addition of 10 µL substrate solution and incubated for 50 minutes at 22° C. The reaction is terminated by the addition of 80 µL of cold 10% orthophosphoric solution. The Filter Plates (opaque, non-sterile filter plates) are prewashed with 10 µL of 10% orthophosphoric solution to each well. 100 µL of the mixture are transferred to a phosphocellulose filter and incubated at room temperature for 45 minutes. Filter plates are washed with 200 µL 0.5 % orthophosphoric acid 3 times on a filter plate processor. Incorporation of 33Pi (counting of “cpm”) is determined by adding 80 µL of MICROSCINT™ to each well and read on a counter after an hour. Data is processed through a [sequence] [sequence]Ⓡ tool. Data are analyzed using a 4-parameter nonlinear logistic equation (four-parameter logistic concentration-response curve): Y = bot + [(top-bot)/1+(x/ IC50)slope] where Y = % inhibition, X = concentration yielding y% inhibition, Bottom = minimum value of y attained by curve, Top = maximum value of y attained by curve and Slope = steepness of curve at IC50. %Inh = [(median Max- x/ median Max - median Min)] . 100 IC50: concentration of compound that reduces a given response (ligand binding, enzyme response) by 50%.

[2] = IC50 after 3 hours of preincubation of CDK7 enzyme, 3 hours preincubation
[3] = IC50 in CDK7 without preincubation, no preincubation of enzyme with compound

Sequence of CDK9/cyclinT1 (P50750 whole entry): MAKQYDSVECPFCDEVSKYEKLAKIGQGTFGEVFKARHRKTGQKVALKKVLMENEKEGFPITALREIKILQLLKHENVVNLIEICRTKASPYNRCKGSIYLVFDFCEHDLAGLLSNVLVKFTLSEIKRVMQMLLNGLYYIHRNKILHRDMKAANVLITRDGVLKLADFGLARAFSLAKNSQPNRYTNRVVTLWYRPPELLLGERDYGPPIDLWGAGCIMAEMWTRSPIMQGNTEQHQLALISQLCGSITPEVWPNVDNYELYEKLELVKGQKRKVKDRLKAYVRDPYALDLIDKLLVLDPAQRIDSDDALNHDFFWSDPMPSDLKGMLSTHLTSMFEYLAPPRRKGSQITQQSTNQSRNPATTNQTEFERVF
Sequence of CDK9/cyclinT1 (O60563 whole entry partner): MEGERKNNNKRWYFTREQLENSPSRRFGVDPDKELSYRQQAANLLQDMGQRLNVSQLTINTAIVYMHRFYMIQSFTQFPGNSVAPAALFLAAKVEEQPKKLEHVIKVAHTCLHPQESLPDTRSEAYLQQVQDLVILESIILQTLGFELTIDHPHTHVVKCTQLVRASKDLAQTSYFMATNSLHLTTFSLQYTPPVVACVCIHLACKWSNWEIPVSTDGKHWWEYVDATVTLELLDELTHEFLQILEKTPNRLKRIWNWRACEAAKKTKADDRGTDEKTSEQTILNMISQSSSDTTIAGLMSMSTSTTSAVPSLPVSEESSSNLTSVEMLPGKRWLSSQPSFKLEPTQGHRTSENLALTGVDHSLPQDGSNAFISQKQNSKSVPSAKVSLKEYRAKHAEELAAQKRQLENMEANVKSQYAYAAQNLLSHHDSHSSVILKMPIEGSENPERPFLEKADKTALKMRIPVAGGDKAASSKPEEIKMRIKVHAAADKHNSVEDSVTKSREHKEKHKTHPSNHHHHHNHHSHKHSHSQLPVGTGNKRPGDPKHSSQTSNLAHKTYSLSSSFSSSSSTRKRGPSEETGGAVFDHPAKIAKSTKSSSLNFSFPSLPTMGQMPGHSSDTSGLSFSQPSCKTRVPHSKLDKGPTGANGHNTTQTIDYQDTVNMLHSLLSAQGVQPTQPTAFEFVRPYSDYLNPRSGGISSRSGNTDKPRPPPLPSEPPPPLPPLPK

Structure (SMILES) | IC50 (CDK9/cyclinT1) [nM] | IC50 (cMyc in HCT116 cells; Homo sapiens, HCT-116, 4 h) [nM] | IC50 ([1]; Homo sapiens, HCT-116, 4 h) [nM] | IC50 (CDK7/CyclinH/Mat1; [2]) [nM] | IC50 (CDK7/CyclinH/Mat1; [3]) [nM] | IC50 (cMyc in HCT116 cells; 4 hours) [nM] | IC50 ([1]; 4 hours) [nM]
C=CC(=O)N1CCO[C@H](CN2CCC(Nc3cc(C(F)(F)F)cn4c(C(C)C)cnc34)CC2)C1 [Example 8, 1-[(2R)-2-[[4-[[3-isopropyl-6-(trifluoromethyl)imidazo[1,2-a]pyridin-8-yl]amino]-1-piperidyl]methyl]morpholin-4-yl]prop-2-en-1-one] | 2140 | 24.5 | 2590 | 5.74 | 65.6 |  | 
[2H]C([2H])=C([2H])C(=O)N1CCO[C@H](CN2CCC(Nc3cc(C(F)(F)F)cn4c(C(C)C)cnc34)CC2)C1 [Example 6, 2,3,3-trideuterio-1-[(2R)-2-[[4-[[3-isopropyl-6-(trifluoromethyl)imidazo[1,2-a]pyridin-8-yl]amino]-1-piperidyl]methyl]morpholin-4-yl]prop-2-en-1-one] | 1610 | 7.91 | 3790 | 3.96 | 67.4 |  | 
C=CC(=O)N1CCO[C@H](CN2CCC(Nc3cc(C(C)O)cn4c(C(C)C)cnc34)CC2)C1 (single isomer, unassigned) [Example 4] | 8050 |  |  | 14.3 | 155 | 38 | 3710
C=CC(=O)N1CCO[C@H](CN2CCC(Nc3cc(C(C)O)cn4c(C(C)C)cnc34)CC2)C1 (single isomer, unassigned) [Example 5] | 7130 |  |  | 41.5 | 367 | 140 | 7790
[2H]CC([2H])(C)c1cnc2c(NC3CCN(C[C@@H]4CN(C(=O)C=C)CCO4)CC3)cc(C(F)(F)F)cn12 (mixture of isomers) [Example 7, 1-[(2R)-2-[[4-[[3-[rac-1,2-dideuterio-1-methyl-ethyl]-6-(trifluoromethyl)imidazo[1,2-a]pyridin-8-yl]amino]-1-piperidyl]methyl]morpholin-4-yl]prop-2-en-1-one] | 2030 | 13.8 | 2920 | 6.25 | 84.5 |  | 
C=CC(=O)N1CCO[C@H](CN2CCC(Nc3cc(C(C)F)cn4c(C(C)C)cnc34)CC2)C1 (single isomer, unassigned) [Example 2] | 3180 |  |  | 26.6 | 256 | 94.7 | 6360
C=CC(=O)N1CCO[C@H](CN2CCC(Nc3cc(C(C)F)cn4c(C(C)C)cnc34)CC2)C1 (single isomer, unassigned) [Example 1] | 1770 | 82 | 5730 | 14.3 | 123 |  | 
